Test results reported in patent publication US10821100B2, “Triazolone compounds as mPGES-1 inhibitors” (Glenmark Pharmaceuticals S.A., priority 2012, dated 2020).
Values belong to the molecule of their own block, whether it stands above or below them.

Biological target: T1, Recombinant human mPGES-1 (Homo sapiens, UniProt O14684)
T1 construct: made in house; host or cells: CHO cells (crude microsomal fractions)
T1 sequence (O14684 1-152): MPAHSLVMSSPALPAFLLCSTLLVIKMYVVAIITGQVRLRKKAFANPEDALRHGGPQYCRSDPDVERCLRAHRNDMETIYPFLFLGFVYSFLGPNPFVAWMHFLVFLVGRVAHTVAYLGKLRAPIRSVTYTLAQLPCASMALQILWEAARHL
Assay: In-vitro screening of mPGES-1 inhibitors (inhibition of PGE2 formation from PGH2, HTRF detection)
Assay type: biochemical
Conditions: mPGES-1 enzyme; for inhibition at 1 µM: 1 μM test compound, read-out: Percentage inhibition at 1 μM; for inhibition at 10 µM: 10 μM test compound, read-out: Percentage inhibition at 10 μM; for IC50: class symbols
Description: In-Vitro Protocol for Screening of mPGES-1 Inhibitors: mPGES-1 (Microsomal prostaglandin E synthase-1) is a microsomal enzyme that converts endoperoxide substrate PGH2 (prostaglandin H2) to product PGE2 (prostaglandin E2) by isomerization in the presence of reduced glutathione (GSH). mPGES-1 inhibitors were screened by assessing their ability to inhibit formation of PGE2 from PGH2 in the presence of mPGES-1 using an anti-PGE2 antibody based detection method. Recombinant human mPGES-1 was generated in-house by expression in CHO cells (Ouellet M et al. (2002), Protein Expression and Purification 26: 489-495). The assay was set up using crude microsomal fractions at a protein concentration of 40-60 μg/mL. Test compounds were prepared in 100% dimethyl sulfoxide (DMSO) to obtain 20 mM stock solution and then diluted using assay buffer comprising 0.1 M Potassium phosphate buffer with 2 mM EDTA. The final concentration of DMSO in the reaction was 0.5% (v/v). Negative controls were comprised of all assay reagents except the enzyme. Positive controls were comprised of the enzyme reaction in the absence of any inhibitor. Test compounds were incubated for 10 minutes in assay buffer containing 2.5 mM GSH and mPGES-1 enzyme followed by addition of PGH2 at a concentration of 15 μM for 1 minute. The reaction was stopped by addition of Stannous chloride (11 mg/ml) and PGE2 levels were measured ([…] et al. (2005), Journal of Biomolecular Screening 10(6) 599-605; Goedken R E et al. (2008), Journal of Biomolecular Screening 13 (7): 619-625) by HTRF kit (CisBio)). Inhibition of mPGES-1 enzyme activity was measured using the percent of reaction occurring in the positive control. Concentration response curves were plotted using percent inhibition of maximum enzyme reaction. The IC50 value was calculated from the concentration response curve by nonlinear regression analysis using GraphPad PRISM software.

Structure (SMILES): [O-][S+]1NC(c2c(F)cccc2Cl)=NN1c1ccc(Br)cc1 (stereo not drawn) [Example-1, 2-(4-Bromophenyl)-4-(2-chloro-6-fluorophenyl)-2,5-dihydro-1,2,3,5-thiatriazole-1-oxide]
inhibition at 1 µM (crude microsomal fractions): 9.32%
inhibition at 10 µM (crude microsomal fractions): 68.2%

Structure (SMILES): O=c1[nH]c(-c2c(F)cccc2Cl)nn1-c1ccc(-c2ccc(C(F)(F)F)nc2)cc1 [Example-2, 5-(2-Chloro-6-fluorophenyl)-2-{4-[6-(trifluoromethyl)pyridin-3-yl]phenyl}-2,4-dihydro-3H-1,2,4-triazol-3-one]
inhibition at 1 µM (crude microsomal fractions): 18%
inhibition at 10 µM (crude microsomal fractions): 19%

Structure (SMILES): O=c1[nH]c(-c2c(F)cccc2Cl)nn1-c1ccc(C#Cc2ccccc2C(F)(F)F)cc1 [Example-3, 5-(2-Chloro-6-fluorophenyl)-2-(4-{[2-(trifluoromethyl)phenyl]ethynyl}phenyl)-2,4-dihydro-3H-1,2,4-triazol-3-one]
inhibition at 1 µM (crude microsomal fractions): 88.9%
inhibition at 3 µM (3 μM test compound, crude microsomal fractions, read-out: Percentage inhibition at 3 μM): 96.8%
IC50: < 50 nM

Structure (SMILES): Cc1csc(-c2ccc(-n3nc(-c4c(F)cccc4-c4cc(C)cs4)[nH]c3=O)cc2)c1 [Example-4, 5-[2-Fluoro-6-(4-methylthiophen-2-yl)phenyl]-2-[4-(4-methylthiophen-2-yl)phenyl]-2,4-dihydro-3H-1,2,4-triazol-3-one]
inhibition at 1 µM (crude microsomal fractions): 46.4%
inhibition at 10 µM (crude microsomal fractions): 69.7%

Structure (SMILES): O=c1[nH]c(-c2c(F)cccc2Cl)nn1-c1ccc(C#Cc2ccc(F)nc2)cc1 [Example-5, 5-(2-Chloro-6-fluorophenyl)-2-{4-[(6-fluoropyridin-3-yl)ethynyl]phenyl}-2,4-dihydro-3H-1,2,4-triazol-3-one]
inhibition at 1 µM (crude microsomal fractions): 91.8%
inhibition at 10 µM (crude microsomal fractions): 86.2%
IC50: < 50 nM

Structure (SMILES): O=c1[nH]c(-c2c(F)cccc2Cl)nn1-c1ccc(C#Cc2ccc(Cl)cc2F)cc1 [Example-6, 5-(2-Chloro-6-fluorophenyl)-2-{4-[(4-chloro-2-fluorophenyl)ethynyl]phenyl}-2,4-dihydro-3H-1,2,4-triazol-3-one]
inhibition at 1 µM (crude microsomal fractions): 83.9%
inhibition at 10 µM (crude microsomal fractions): 87.7%
IC50: < 50 nM

Structure (SMILES): O=c1[nH]c(-c2c(F)cccc2Cl)nn1-c1ccc(C#Cc2ccc(C(F)(F)F)cc2Cl)cc1 [Example-7, 5-(2-Chloro-6-fluorophenyl)-2-(4-{[2-chloro-4-(trifluoromethyl)phenyl]ethynyl}phenyl)-2,4-dihydro-3H-1,2,4-triazol-3-one]
inhibition at 1 µM (crude microsomal fractions): 89.1%
inhibition at 10 µM (crude microsomal fractions): 95.2%
IC50: < 50 nM

Structure (SMILES): O=c1[nH]c(-c2c(F)cccc2Cl)nn1-c1ccc(-c2cccc(OC(F)(F)F)c2)cc1 [Example-8, 5-(2-Chloro-6-fluorophenyl)-2-[3′-(trifluoromethoxy)biphenyl-4-yl]-2,4-dihydro-3H-1,2,4-triazol-3-one]
inhibition at 1 µM (crude microsomal fractions): 84.9%
inhibition at 10 µM (crude microsomal fractions): 87.2%
IC50: 50 to 100 nM

Structure (SMILES): O=c1[nH]c(-c2c(F)cccc2Cl)nn1-c1ccc(Nc2cccc(C(F)(F)F)c2)cc1 [Example-9, 5-(2-Chloro-6-fluorophenyl)-2-(4-{[3-(trifluoromethyl)phenyl]amino}phenyl)-2,4-dihydro-3H-1,2,4-triazol-3-one]
inhibition at 1 µM (crude microsomal fractions): 1.53%
inhibition at 10 µM (crude microsomal fractions): 23.2%

Structure (SMILES): O=c1[nH]c(-c2c(F)cccc2Cl)nn1-c1ccc(C#Cc2cc(Cl)ccc2Cl)cc1 [Example-10, 5-(2-Chloro-6-fluorophenyl)-2-{4-[(2,5-dichlorophenyl)ethynyl]phenyl}-2,4-dihydro-3H-1,2,4-triazol-3-one]
inhibition at 1 µM (crude microsomal fractions): 84.9%
inhibition at 10 µM (crude microsomal fractions): 91.2%
IC50: < 50 nM

Structure (SMILES): COCCCNc1nc(-c2c(F)cccc2Cl)nn1-c1ccc(Br)cc1 [Example-11, 1-(4-Bromophenyl)-3-(2-chloro-6-fluorophenyl)-N-(3-methoxypropyl)-1H-1,2,4-triazol-5-amine]
inhibition at 1 µM (crude microsomal fractions): 2.34%
inhibition at 10 µM (crude microsomal fractions): 71.7%

Continued, values first:

inhibition at 1 µM (crude microsomal fractions): 84.8%
inhibition at 10 µM (crude microsomal fractions): 87.5%
IC50: < 50 nM
Structure (SMILES): O=c1[nH]c(-c2c(F)cccc2Cl)nn1-c1ccc(C#Cc2cccc(Cl)c2F)cc1 [Example-12, 1-(4-((3-Chloro-2-fluorophenyl)ethynyl)phenyl)-3-(2-chloro-6-fluorophenyl)-1H-1,2,4-triazol-5(4H)-one]

inhibition at 1 µM (crude microsomal fractions): 86.3%
inhibition at 10 µM (crude microsomal fractions): 90.4%
IC50: > 100 nM
Structure (SMILES): O=c1[nH]c(-c2c(F)cccc2Cl)nn1-c1ccc(C#Cc2ccc(C(F)(F)F)cn2)cc1 [Example-13, 5-(2-Chloro-6-fluorophenyl)-2-(4-{[5-(trifluoromethyl)pyridin-2-yl]ethynyl}phenyl)-2,4-dihydro-3H-1,2,4-triazol-3-one]

inhibition at 1 µM (crude microsomal fractions): 96%
inhibition at 10 µM (crude microsomal fractions): 95.8%
IC50: 50 to 100 nM
Structure (SMILES): O=c1[nH]c(-c2c(F)cccc2Cl)nn1-c1ccc(C#Cc2ccncc2Cl)cc1 [Example-14, 5-(2-Chloro-6-fluorophenyl)-2-{4-[(3-chloropyridin-4-yl)ethynyl]phenyl}-2,4-dihydro-3H-1,2,4-triazol-3-one]

inhibition at 1 µM (crude microsomal fractions): 64.2%
inhibition at 10 µM (crude microsomal fractions): 83.8%
Structure (SMILES): O=c1[nH]c(-c2c(F)cccc2Cl)nn1-c1ccc(C#Cc2cnc(N3CCOCC3)nc2)cc1 [Example-15, 3-(2-Chloro-6-fluorophenyl)-1-(4-((2-morpholinopyrimidin-5-yl)ethynyl)phenyl)-1H-1,2,4-triazol-5(4H)-one]

inhibition at 1 µM (crude microsomal fractions): 40.9%
inhibition at 10 µM (crude microsomal fractions): 92.3%
Structure (SMILES): O=c1[nH]c(-c2c(F)cccc2Cl)nn1-c1ccc(C#Cc2ccc(N3CCOCC3)nc2)cc1 [Example-16, 5-(2-Chloro-6-fluorophenyl)-2-(4-{[6-(morpholin-4-yl)pyridin-3-yl]ethynyl}phenyl)-2,4-dihydro-3H-1,2,4-triazol-3-one]

inhibition at 1 µM (crude microsomal fractions): 2.52%
inhibition at 10 µM (crude microsomal fractions): 44.1%
Structure (SMILES): O=C(NCC1CC1)c1ccc(-n2nc(-c3c(F)cccc3Cl)[nH]c2=O)cc1 [Example-17, 4-[3-(2-Chloro-6-fluorophenyl)-5-oxo-4,5-dihydro-1H-1,2,4-triazol-1-yl]-N-(cyclopropylmethyl)benzamide]

inhibition at 1 µM (crude microsomal fractions): 56.2%
inhibition at 10 µM (crude microsomal fractions): 98.1%
Structure (SMILES): O=C(NCc1ccccc1C(F)(F)F)c1ccc(-n2nc(-c3c(F)cccc3Cl)[nH]c2=O)cc1 [Example-18, 4-[3-(2-Chloro-6-fluorophenyl)-5-oxo-4,5-dihydro-1H-1,2,4-triazol-1-yl]-N-[2-(trifluoromethyl)benzyl]benzamide]

inhibition at 1 µM (crude microsomal fractions): 5.11%
inhibition at 10 µM (crude microsomal fractions): 29.7%
Structure (SMILES): COc1ccc(-n2nc(-c3c(F)cccc3Cl)[nH]c2=O)cc1C(=O)NCC1CC1 [Example-19, 5-[3-(2-Chloro-6-fluorophenyl)-5-oxo-4,5-dihydro-1H-1,2,4-triazol-1-yl]-N-(cyclopropylmethyl)-2-methoxybenzamide]

inhibition at 1 µM (crude microsomal fractions): 22.4%
inhibition at 10 µM (crude microsomal fractions): 87.4%
Structure (SMILES): COc1ccc(-n2nc(-c3c(F)cccc3Cl)[nH]c2=O)cc1C(=O)NCc1ccccc1C(F)(F)F [Example-20, 5-[3-(2-Chloro-6-fluorophenyl)-5-oxo-4,5-dihydro-1H-1,2,4-triazol-1-yl]-2-methoxy-N-[2-(trifluoromethyl)benzyl]benzamide]

inhibition at 1 µM (crude microsomal fractions): 76.1%
inhibition at 10 µM (crude microsomal fractions): 91.8%
Structure (SMILES): COc1ccc(-n2nc(-c3c(F)cccc3Cl)[nH]c2=O)cc1C(=O)NC1(c2ccccc2C(F)(F)F)CC1 [Example-21, 5-[3-(2-Chloro-6-fluorophenyl)-5-oxo-4,5-dihydro-1H-1,2,4-triazol-1-yl]-2-methoxy-N-{1-[2-(trifluoromethyl)phenyl]cyclopropyl}benzamide]

inhibition at 1 µM (crude microsomal fractions): 39.3%
inhibition at 10 µM (crude microsomal fractions): 99.7%
Structure (SMILES): O=C(NC1(c2ccc(C(F)(F)F)cc2)CC1)c1ccc(-n2nc(-c3c(F)cccc3Cl)[nH]c2=O)cc1 [Example-22, 4-[3-(2-Chloro-6-fluorophenyl)-5-oxo-4,5-dihydro-1H-1,2,4-triazol-1-yl]-N-{1-[4-(trifluoromethyl)phenyl]cyclopropyl}benzamide]

inhibition at 1 µM (crude microsomal fractions): 13.2%
inhibition at 10 µM (crude microsomal fractions): 52.9%
Structure (SMILES): COc1ccc(-n2nc(-c3c(F)cccc3Cl)[nH]c2=O)cc1C(=O)NC1(c2ccc(C(F)(F)F)cc2)CC1 [Example-23, 5-[3-(2-Chloro-6-fluorophenyl)-5-oxo-4,5-dihydro-1H-1,2,4-triazol-1-yl]-2-methoxy-N-[1-[4-(trifluoromethyl)phenyl]cyclopropyl]benzamide]

inhibition at 1 µM (crude microsomal fractions): 71%
inhibition at 10 µM (crude microsomal fractions): 83.1%
Structure (SMILES): O=C(NC1(c2ccccc2C(F)(F)F)CC1)c1ccc(-n2nc(-c3c(F)cccc3Cl)[nH]c2=O)cc1 [Example-24, 4-(3-(2-Chloro-6-fluorophenyl)-5-oxo-4,5-dihydro-1H-1,2,4-triazol-1-yl)-N-(1-(2-(trifluoromethyl)phenyl)cyclopropyl)benzamide]
